Assay results reported in article PMC11589570, “Critical assessment of LC3/GABARAP ligands used for degrader development and ligandability of LC3/GABARAP binding pockets” (Nature Communications, 2024).
Several values for one entry are separate records, joined by “and”; a condition that tells them apart may be missing. Equal values may be shown once.

Tested on: RPE1 cells
Experiment: Cell growth assay (IncuCyte confluence over 72 h)
Assay type: cell-based
Description: Cell growth assay: Cell confluence (phase) from RPE1 (hTERT RPE-1, ATCC CLR_4000) or U2OS (ATCC, HTB-96) cell lines were monitored over time with the IncuCyte S3 (Sartiorius, Germany) in 384-well plates in 50 ul DMEM media, supplemented with 10% Fetal Bovine Serum (FBS) 1% penicillin/Streptomycin and incubated 24 h before treatment. Experiment was performed as described in Cano-Franco et al.. 50 μl of media containing either 2× final concentration of indicated compounds in or control compounds (final conc.: 0.1% DMSO, 250 nM Torin1, 200 ng/mL Bafilomycin) were added and images were taken every two hours over 72 h. Cell confluence is represented as % of area covered by cells. Each data point represents the average ratio or confluence obtained from three individual wells of the plate.

## CO[C@@H]1[C@@H](OC(N)=O)[C@@H](O)[C@H](Oc2ccc3c(O)c(NC(=O)c4ccc(O)c(CC=C(C)C)c4)c(=O)oc3c2C)OC1(C)C [compound 12, Novobiocin]
100 nM, 0 h
  RPE1 cell growth: 25 and 15
100 nM, 2 h
  RPE1 cell growth: 26 and 15 and 17
100 nM, 4 h
  RPE1 cell growth: 29 and 17 and 18
100 nM, 6 h
  RPE1 cell growth: 30 and 18
100 nM, 8 h
  RPE1 cell growth: 33 and 18 and 20
100 nM, 10 h
  RPE1 cell growth: 36 and 19 and 21
500 nM, 0 h
  RPE1 cell growth: 27 and 16 and 18
500 nM, 2 h
  RPE1 cell growth: 32 and 16 and 20
500 nM, 4 h
  RPE1 cell growth: 32 and 18 and 22
500 nM, 6 h
  RPE1 cell growth: 35 and 18 and 22
500 nM, 8 h
  RPE1 cell growth: 38 and 20 and 23
500 nM, 10 h
  RPE1 cell growth: 39 and 21
1 uM, 0 h
  RPE1 cell growth: 18 and 23 and 20
1 uM, 2 h
  RPE1 cell growth: 20 and 26 and 21
1 uM, 4 h
  RPE1 cell growth: 22 and 28 and 21
1 uM, 6 h
  RPE1 cell growth: 23 and 32
1 uM, 8 h
  RPE1 cell growth: 26 and 35 and 25
1 uM, 10 h
  RPE1 cell growth: 27
3 uM, 0 h
  RPE1 cell growth: 27 and 19 and 22
3 uM, 2 h
  RPE1 cell growth: 31 and 19 and 24
3 uM, 4 h
  RPE1 cell growth: 33 and 20 and 27
3 uM, 6 h
  RPE1 cell growth: 37 and 22 and 28
3 uM, 8 h
  RPE1 cell growth: 41 and 24 and 30
3 uM, 10 h
  RPE1 cell growth: 40 and 26 and 31
5 uM, 0 h
  RPE1 cell growth: 24 and 20
5 uM, 2 h
  RPE1 cell growth: 28 and 22 and 24
5 uM, 4 h
  RPE1 cell growth: 31 and 22 and 26
5 uM, 6 h
  RPE1 cell growth: 34 and 23 and 27
5 uM, 8 h
  RPE1 cell growth: 36 and 26 and 28
5 uM, 10 h
  RPE1 cell growth: 35 and 26 and 30
10 uM, 0 h
  RPE1 cell growth: 22 and 24 and 16
10 uM, 2 h
  RPE1 cell growth: 24 and 19
10 uM, 4 h
  RPE1 cell growth: 26 and 24 and 20
10 uM, 6 h
  RPE1 cell growth: 29 and 25 and 23
10 uM, 8 h
  RPE1 cell growth: 32 and 28 and 23
10 uM, 10 h
  RPE1 cell growth: 32 and 28 and 26

## O=C1Nc2ccc(Br)cc2C1=Cc1cc(O)c(O)c(Br)c1 [compound 1]
100 nM, 10 h, listed as AN1
  RPE1 cell growth: 30 and 17 and 26
100 nM, 12 h, listed as AN1
  RPE1 cell growth: 33 and 18 and 27
100 nM, 14 h, listed as AN1
  RPE1 cell growth: 37 and 19 and 27
100 nM, 16 h, listed as AN1
  RPE1 cell growth: 37 and 22 and 30
100 nM, 18 h, listed as AN1
  RPE1 cell growth: 41 and 22 and 30
100 nM, 20 h, listed as AN1
  RPE1 cell growth: 42 and 22
500 nM, 10 h, listed as AN1
  RPE1 cell growth: 40 and 23 and 25
500 nM, 12 h, listed as AN1
  RPE1 cell growth: 43 and 24 and 26
500 nM, 14 h, listed as AN1
  RPE1 cell growth: 44 and 25 and 28
500 nM, 16 h, listed as AN1
  RPE1 cell growth: 47 and 29 and 30
500 nM, 18 h, listed as AN1
  RPE1 cell growth: 49 and 29 and 32
1 uM, 10 h, listed as AN1
  RPE1 cell growth: 23 and 42 and 25
1 uM, 12 h, listed as AN1
  RPE1 cell growth: 25 and 45 and 28
1 uM, 14 h, listed as AN1
  RPE1 cell growth: 26 and 48 and 29
1 uM, 16 h, listed as AN1
  RPE1 cell growth: 29 and 49 and 32
1 uM, 18 h, listed as AN1
  RPE1 cell growth: 30 and 50 and 34
1 uM, 20 h, listed as AN1
  RPE1 cell growth: 32
3 uM, 10 h, listed as AN1
  RPE1 cell growth: 43 and 32 and 29
3 uM, 12 h, listed as AN1
  RPE1 cell growth: 45 and 37 and 31
3 uM, 14 h, listed as AN1
  RPE1 cell growth: 48 and 37 and 32
3 uM, 16 h, listed as AN1
  RPE1 cell growth: 50 and 39 and 35
3 uM, 18 h, listed as AN1
  RPE1 cell growth: 53 and 40 and 36
3 uM, 20 h, listed as AN1
  RPE1 cell growth: 52 and 41 and 37
5 uM, 10 h, listed as AN1
  RPE1 cell growth: 47 and 35
5 uM, 12 h, listed as AN1
  RPE1 cell growth: 49 and 38
5 uM, 14 h, listed as AN1
  RPE1 cell growth: 53 and 38 and 42
5 uM, 16 h, listed as AN1
  RPE1 cell growth: 55 and 41 and 44
5 uM, 18 h, listed as AN1
  RPE1 cell growth: 57 and 42 and 46
5 uM, 20 h, listed as AN1
  RPE1 cell growth: 56 and 45 and 49
10 uM, 10 h, listed as AN1
  RPE1 cell growth: 47 and 35 and 32
10 uM, 12 h, listed as AN1
  RPE1 cell growth: 51 and 37 and 33
10 uM, 14 h, listed as AN1
  RPE1 cell growth: 53 and 39 and 36
10 uM, 16 h, listed as AN1
  RPE1 cell growth: 55 and 43 and 35
10 uM, 18 h, listed as AN1
  RPE1 cell growth: 56 and 38 and 37
10 uM, 20 h, listed as AN1
  RPE1 cell growth: 54 and 41 and 38
RPE1, 72 h
  effect on cell growth (confluence): high dosage effects

## O=c1cc(-c2ccccc2)c2c(O)cc(O)cc2o1 [compound 2]
100 nM, 0 h, listed as AN2
  RPE1 cell growth: 20 and 12 and 15
100 nM, 2 h, listed as AN2
  RPE1 cell growth: 24 and 13 and 16
100 nM, 4 h, listed as AN2
  RPE1 cell growth: 26 and 14 and 18
100 nM, 6 h, listed as AN2
  RPE1 cell growth: 28 and 15 and 18
100 nM, 8 h, listed as AN2
  RPE1 cell growth: 30 and 15 and 19
100 nM, 10 h, listed as AN2
  RPE1 cell growth: 32 and 17
500 nM, 0 h, listed as AN2
  RPE1 cell growth: 22 and 20
500 nM, 2 h, listed as AN2
  RPE1 cell growth: 27 and 18 and 21
500 nM, 4 h, listed as AN2
  RPE1 cell growth: 29 and 19 and 24
500 nM, 6 h, listed as AN2
  RPE1 cell growth: 32 and 20 and 24
500 nM, 8 h, listed as AN2
  RPE1 cell growth: 35 and 21 and 25
1 uM, 0 h, listed as AN2
  RPE1 cell growth: 17 and 22 and 23
1 uM, 2 h, listed as AN2
  RPE1 cell growth: 19 and 26 and 23
1 uM, 4 h, listed as AN2
  RPE1 cell growth: 22 and 28 and 26
1 uM, 6 h, listed as AN2
  RPE1 cell growth: 22 and 31 and 24
1 uM, 8 h, listed as AN2
  RPE1 cell growth: 24 and 34 and 27
1 uM, 10 h, listed as AN2
  RPE1 cell growth: 25
3 uM, 0 h, listed as AN2
  RPE1 cell growth: 24 and 21 and 19
3 uM, 2 h, listed as AN2
  RPE1 cell growth: 30 and 22 and 21
3 uM, 4 h, listed as AN2
  RPE1 cell growth: 32 and 21 and 24
3 uM, 6 h, listed as AN2
  RPE1 cell growth: 36 and 22 and 26
3 uM, 8 h, listed as AN2
  RPE1 cell growth: 39 and 24 and 26
3 uM, 10 h, listed as AN2
  RPE1 cell growth: 39 and 27 and 28
5 uM, 0 h, listed as AN2
  RPE1 cell growth: 22 and 21
5 uM, 2 h, listed as AN2
  RPE1 cell growth: 28 and 21 and 24
5 uM, 4 h, listed as AN2
  RPE1 cell growth: 32 and 22 and 27
5 uM, 6 h, listed as AN2
  RPE1 cell growth: 35 and 24 and 29
5 uM, 8 h, listed as AN2
  RPE1 cell growth: 37 and 24 and 30
5 uM, 10 h, listed as AN2
  RPE1 cell growth: 38 and 26 and 32
10 uM, 0 h, listed as AN2
  RPE1 cell growth: 27 and 24 and 19
10 uM, 2 h, listed as AN2
  RPE1 cell growth: 31 and 27 and 22
10 uM, 4 h, listed as AN2
  RPE1 cell growth: 34 and 26 and 24
10 uM, 6 h, listed as AN2
  RPE1 cell growth: 37 and 25 and 26
10 uM, 8 h, listed as AN2
  RPE1 cell growth: 40 and 29 and 27
10 uM, 10 h, listed as AN2
  RPE1 cell growth: 42 and 31 and 30
